The values that follow are results of earlier work, collected in patent publication US20250295673A1, “TREATMENT OF BREAST CANCER” (priority 2024, published 2025).

“Also recorded” adds a separate entry of the source.

For data set [1], the system named is FSH (Follicle Stimulating Hormone) and LH (Leutinizing Hormone) release. The following applies: nandrolone alone.
The next data set deals with T1, SHBG (Homo sapiens, UniProt P04278).
T1 sequence (P04278 30-402): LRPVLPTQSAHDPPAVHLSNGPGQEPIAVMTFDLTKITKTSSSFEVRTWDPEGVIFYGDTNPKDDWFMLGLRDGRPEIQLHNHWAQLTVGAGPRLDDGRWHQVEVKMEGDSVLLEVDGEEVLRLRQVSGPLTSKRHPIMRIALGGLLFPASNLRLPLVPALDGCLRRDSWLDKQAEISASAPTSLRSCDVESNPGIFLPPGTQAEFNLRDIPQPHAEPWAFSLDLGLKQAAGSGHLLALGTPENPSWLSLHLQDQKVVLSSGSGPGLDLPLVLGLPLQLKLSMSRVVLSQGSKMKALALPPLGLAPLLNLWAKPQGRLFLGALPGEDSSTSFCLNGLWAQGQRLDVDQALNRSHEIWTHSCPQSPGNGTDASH
To be noted: releases testosterone, nandrolone, oxandrolone from SHBG.

The subject of a further data set is brain oxytocin. To be noted: topically applied vaginally.

As to `C[C@]12CC[C@H]3[C@@H](CCC4=CC(=O)CC[C@@H]43)[C@@H]1CC[C@@H]2O` [nandrolone], in data set [1], the “effect on FSH and LH release from the pituitary” value is “suppresses”.
For the compound `C[C@]12Cc3c[nH]nc3C[C@@H]1CC[C@@H]1[C@@H]2CC[C@@]2(C)[C@H]1CC[C@]2(C)O` [stanozolol], the “net increase of androgens by release from SHBG” value at SHBG was “four-fold”. In the data set on brain oxytocin, the “effect on brain oxytocin” value is “increases brain oxytocin; also recorded: raises a user's oxytocin levels”.
